# From PubChem BioAssay AID2060895 (Molecular Pharmacology Branch, DTP, NCI, 2025)
# Test system: PDC 899932-113-R3-J6 complex spheroid viability
# Test: Anticancer human tumor 899932-113-R3-J6-PDC patient-derived melanoma cell line growth inhibition [RAS]
# Details: for IC50: curve of first compound; for viability, T/C: stronger effect = lower value
# Outline: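 Agents were tested in combination matrices in half-log decrements from a top concentration at or near clinical Cmax (10 microM if undetermined). Targets were multi-cell spheroids of tumour lines plus HUVEC and MSC stromal cells.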
# [1] = second compound 0.00316 µM, first compound 0.0316 µM
# [2] = second compound 0.00316 µM, first compound 0.1 µM
# [3] = second compound 0.00316 µM, first compound 0.316 µM
# [4] = second compound 0.00316 µM, first compound 1 µM
# [5] = second compound 0.00316 µM, first compound 3.16 µM
# [6] = second compound 0.00316 µM, first compound 10 µM
# [7] = second compound 0.01 µM, first compound 0.0316 µM
# [8] = second compound 0.01 µM, first compound 0.1 µM
# [9] = second compound 0.01 µM, first compound 0.316 µM
# [10] = second compound 0.01 µM, first compound 1 µM
# [11] = second compound 0.01 µM, first compound 3.16 µM
# [12] = second compound 0.01 µM, first compound 10 µM
# [13] = second compound 0.0316 µM, first compound 0.0316 µM
# [14] = second compound 0.0316 µM, first compound 0.1 µM
# [15] = second compound 0.0316 µM, first compound 0.316 µM
# [16] = second compound 0.0316 µM, first compound 1 µM
# [17] = second compound 0.0316 µM, first compound 3.16 µM
# [18] = second compound 0.0316 µM, first compound 10 µM
# [19] = second compound 0.1 µM, first compound 0.0316 µM
# [20] = second compound 0.1 µM, first compound 0.1 µM
# [21] = second compound 0.1 µM, first compound 0.316 µM
# [22] = second compound 0.1 µM, first compound 1 µM
# [23] = second compound 0.1 µM, first compound 3.16 µM
# [24] = second compound 0.1 µM, first compound 10 µM
# [25] = second compound 0.316 µM, first compound 0.0316 µM
# [26] = second compound 0.316 µM, first compound 0.1 µM
# [27] = second compound 0.316 µM, first compound 0.316 µM
# [28] = second compound 0.316 µM, first compound 1 µM
# [29] = second compound 0.316 µM, first compound 3.16 µM
# [30] = second compound 0.316 µM, first compound 10 µM
# [31] = second compound 1 µM, first compound 0.0316 µM
# [32] = second compound 1 µM, first compound 0.1 µM
# [33] = second compound 1 µM, first compound 0.316 µM
# [34] = second compound 1 µM, first compound 1 µM
# [35] = second compound 1 µM, first compound 3.16 µM
# [36] = second compound 1 µM, first compound 10 µM
# 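Throughout, for viability, T/C: spheroids exposed to agents for seven days before readout; 100% = DMSO vehicle control wells.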
smiles,measurement,setting,value
CC(Nc1ccc2c(c1)OCCn1cc(N3C(=O)OCC3C(F)F)nc1-2)C(N)=O (stereo unspecified) + C=CC(=O)N1CCN(c2nc(OCC3CCCN3C)nc3c(F)c(-c4nc(N)cc(C)c4C(F)(F)F)c(Cl)cc23)C(C)C1,IC50,second compound 0.00316 µM,1670 nM
same,IC50,second compound 0.01 µM,2010 nM
same,IC50,second compound 0.0316 µM,2910 nM
same,IC50,second compound 0.1 µM,2330 nM
same,IC50,second compound 0.316 µM,1640 nM
same,IC50,second compound 1 µM,1510 nM
same,"viability, T/C",[1],97%
same,"viability, T/C",[2],72.4%
same,"viability, T/C",[3],69.6%
same,"viability, T/C",[4],55.6%
same,"viability, T/C",[5],43%
same,"viability, T/C",[6],36.7%
same,"viability, T/C",[7],81.4%
same,"viability, T/C",[8],75.8%
same,"viability, T/C",[9],65.6%
same,"viability, T/C",[10],55.8%
same,"viability, T/C",[11],47.5%
same,"viability, T/C",[12],32.8%
same,"viability, T/C",[13],90.3%
same,"viability, T/C",[14],75.8%
same,"viability, T/C",[15],70.1%
same,"viability, T/C",[16],59.9%
same,"viability, T/C",[17],49.7%
same,"viability, T/C",[18],38.9%
same,"viability, T/C",[19],88.2%
same,"viability, T/C",[20],77.2%
same,"viability, T/C",[21],69.1%
same,"viability, T/C",[22],55.6%
same,"viability, T/C",[23],48.3%
same,"viability, T/C",[24],38.6%
same,"viability, T/C",[25],82.3%
same,"viability, T/C",[26],75.9%
same,"viability, T/C",[27],68.5%
same,"viability, T/C",[28],51.9%
same,"viability, T/C",[29],46.5%
same,"viability, T/C",[30],38.6%
same,"viability, T/C",[31],95.5%
same,"viability, T/C",[32],81.2%
same,"viability, T/C",[33],61.4%
same,"viability, T/C",[34],53.2%
same,"viability, T/C",[35],48.7%
same,"viability, T/C",[36],32%
C[C@@H](NC(=O)c1ncnc(N)c1Cl)c1ncc(C(=O)Nc2cc(C(F)(F)F)c(Cl)cn2)s1 + C=CC(=O)N1CCN(c2nc(OCC3CCCN3C)nc3c(F)c(-c4nc(N)cc(C)c4C(F)(F)F)c(Cl)cc23)C(C)C1,IC50,second compound 0.00316 µM,6950 nM
same,IC50,second compound 0.01 µM,7010 nM
same,IC50,second compound 0.0316 µM,7260 nM
same,IC50,second compound 0.1 µM,7390 nM
same,IC50,second compound 0.316 µM,7410 nM
same,IC50,second compound 1 µM,7600 nM
same,"viability, T/C",[1],131%
same,"viability, T/C",[2],152%
same,"viability, T/C",[3],169%
same,"viability, T/C",[4],164%
same,"viability, T/C",[5],103%
same,"viability, T/C",[6],25.8%
same,"viability, T/C",[7],140%
same,"viability, T/C",[8],153%
same,"viability, T/C",[9],153%
same,"viability, T/C",[10],154%
same,"viability, T/C",[11],106%
same,"viability, T/C",[12],25%
same,"viability, T/C",[13],121%
same,"viability, T/C",[14],143%
same,"viability, T/C",[15],157%
same,"viability, T/C",[16],154%
same,"viability, T/C",[17],104%
same,"viability, T/C",[18],29.1%
same,"viability, T/C",[19],142%
same,"viability, T/C",[20],152%
same,"viability, T/C",[21],153%
same,"viability, T/C",[22],160%
same,"viability, T/C",[23],115%
same,"viability, T/C",[24],26.9%
same,"viability, T/C",[25],136%
same,"viability, T/C",[26],136%
same,"viability, T/C",[27],168%
same,"viability, T/C",[28],161%
same,"viability, T/C",[29],108%
same,"viability, T/C",[30],29.3%
same,"viability, T/C",[31],124%
same,"viability, T/C",[32],144%
same,"viability, T/C",[33],149%
same,"viability, T/C",[34],151%
same,"viability, T/C",[35],114%
same,"viability, T/C",[36],29.9%
O=C(c1ccc(F)c(F)c1Nc1ccc(I)cc1F)N1CC(O)([C@@H]2CCCCN2)C1 + C=CC(=O)N1CCN(c2nc(OCC3CCCN3C)nc3c(F)c(-c4nc(N)cc(C)c4C(F)(F)F)c(Cl)cc23)C(C)C1,IC50,second compound 0.00316 µM,5.71 nM
same,IC50,second compound 0.01 µM,6.26 nM
same,IC50,second compound 0.0316 µM,6.75 nM
same,IC50,second compound 0.1 µM,8.47 nM
same,IC50,second compound 0.316 µM,7.95 nM
same,IC50,second compound 1 µM,8.43 nM
same,"viability, T/C","second compound 0.00316 µM, first compound 0.00316 µM",71.1%
same,"viability, T/C","second compound 0.00316 µM, first compound 0.01 µM",30%
same,"viability, T/C",[1],6.25%
same,"viability, T/C",[2],3.24%
same,"viability, T/C",[3],1.5%
same,"viability, T/C",[4],0.84%
same,"viability, T/C","second compound 0.01 µM, first compound 0.00316 µM",74.8%
same,"viability, T/C","second compound 0.01 µM, first compound 0.01 µM",33%
same,"viability, T/C",[7],5.84%
same,"viability, T/C",[8],2.5%
same,"viability, T/C",[9],1.9%
same,"viability, T/C",[10],0.68%
same,"viability, T/C","second compound 0.0316 µM, first compound 0.00316 µM",81.8%
same,"viability, T/C","second compound 0.0316 µM, first compound 0.01 µM",33.5%
same,"viability, T/C",[13],7.48%
same,"viability, T/C",[14],2.48%
same,"viability, T/C",[15],1.88%
same,"viability, T/C",[16],0.72%
same,"viability, T/C","second compound 0.1 µM, first compound 0.00316 µM",73.9%
same,"viability, T/C","second compound 0.1 µM, first compound 0.01 µM",46%
same,"viability, T/C",[19],7.56%
same,"viability, T/C",[20],2.66%
same,"viability, T/C",[21],1.89%
same,"viability, T/C",[22],1.02%
same,"viability, T/C","second compound 0.316 µM, first compound 0.00316 µM",74.5%
same,"viability, T/C","second compound 0.316 µM, first compound 0.01 µM",43.9%
same,"viability, T/C",[25],9.69%
same,"viability, T/C",[26],2.51%
same,"viability, T/C",[27],1.92%
same,"viability, T/C",[28],0.96%
same,"viability, T/C","second compound 1 µM, first compound 0.00316 µM",72.8%
same,"viability, T/C","second compound 1 µM, first compound 0.01 µM",46%
same,"viability, T/C",[31],7.46%
same,"viability, T/C",[32],3.39%
same,"viability, T/C",[33],1.9%
same,"viability, T/C",[34],1.15%
